Where “and” joins values, the source holds several entries; their conditions need not be identical. Identical values can stand only once.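 Values below derive from 48-hour exposures of cells grown in 96-well plates, with endpoints linearly interpolated between the two concentrations bracketing the appropriate inhibition level. Here, GI50 denotes the concentration required for 50% inhibition of growth. TGI denotes the concentration required for complete inhibition of growth.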

Assay in all cases: inhibition of tumour cell growth, NCI panel, 48 h
Assay [1] has as its system IGROV1 ovarian.
For assay [2], the system named is KM12 colon.
The test system of assay [3] is M14 melanoma.
Assay [4] has as its system UO-31 renal.
In assay [5] the test system is COLO 205 colon.
The test system of assay [6] is A549 NSCLC.
The test system of assay [7] is HOP-92 NSCLC.
Assay [8] has as its system DU-145 prostate.
The subject of assay [9] is HCC-2998 colon.
Assay [10] deals with NCI-H23 lung.

`Nc1ccc2c(=O)cc(-c3ccc(Br)s3)[nH]c2n1`: the TGI in [1] is above 100 µM; in assay [2] it was above 100 µM; in [3], 45.3 µM; in assay [4] it was above 23.2 µM; in assay [5], above 22.1 µM; in [6], above 44.8 µM. Further, the TGI in [7] was above 100 µM; in assay [8] it was above 100 µM; in [9], 29.7 µM; in [10], above 23.4 µM.

Consider `CCCC1=C(OC)C(=O)c2c(C)cc(Cl)nc2C1=O`, for which the TGI in assay [1] turned out to be 30.3 µM; in [2], 18.1 µM; in assay [3], 18.9 µM; in assay [4], 26.5 µM; in assay [5], 22.1 µM; in [6], 26.9 µM. The TGI in assay [7] stood at 11.3 µM; in assay [8], 28.6 µM; in [9], 20.2 µM; in assay [10], 13.7 µM.

As for `CC(C)OP(=O)(OC(C)C)C(C(C)C)N(C)C(N)=NC#N` (stereo not drawn), the TGI in assay [1], in assay [2], in assay [3], in assay [4], in assay [5] and in assay [6] was above 100 µM throughout. Besides, the TGI in assay [7], in [8], in [9] and in [10] was above 100 µM in each case.

As to `O=C1C(N2CCN(CCOCCO)CC2)=C(Cl)C(=O)c2ncccc21`, the TGI in assay [1] is 31.4 µM; in [2], above 100 µM; in [3] it was 39.2 µM; in assay [4], 33.6 µM; in assay [5], 36.8 µM; in assay [6] it was above 100 µM. The TGI is 6.27 µM and 31.4 µM in [7]; above 100 µM in [8]; above 100 µM in assay [9]; 42.5 µM in [10]. Further, the GI50 was above 100 µM in assay [2]; 19.3 µM in assay [5]; above 100 µM in assay [6]; 16.7 µM in assay [7]; above 100 µM in [9].

As to `Cc1cc(C)nc(NS(=O)(=O)c2ccc(NNc3c4ccccc4nc4c(C(=O)Nc5ccc(S(=O)(=O)Nc6cc(C)on6)cc5)cccc34)cc2)n1`, the TGI in assay [1], in assay [2], in assay [3], in [4], in assay [5] and in assay [6] was above 100 µM each time. Besides, the TGI was above 100 µM in assay [7], above 100 µM in [8], 50.2 µM in assay [9] and above 100 µM in [10].

Regarding `CC(CCc1nc2ccccc2s1)(c1ccc(O)cc1)c1ccc(O)cc1`, the TGI in [1] is 28.3 µM; in assay [2] it was 33.8 µM; in [3] it was 33.4 µM; in assay [4] it was 31.3 µM; in [6] it was 38.2 µM; in [7], 36.7 µM. For the same compound, the TGI in [8] is 31.6 µM; in assay [9] it was 33.8 µM; in assay [10], 32 µM.

On to `COC(=O)C1C(=O)CC(C)(O)C(C(=O)OC)C1c1ccc(N(C)C)cc1` (stereo not drawn), for which the TGI in assay [1], in assay [2], in assay [4], in assay [5], in assay [6] and in assay [7] was above 100 µM each time. Further, the TGI in assay [8], in [9] and in assay [10] was above 100 µM each time.

Turning to `Cc1nc2ccc(Br)cc2c(=O)n1-c1ccc(N)cc1`, the TGI in assay [1], in assay [2], in [3], in assay [4], in assay [5] and in assay [6] was above 100 µM in each case. Moreover, the TGI in assay [7], in [8] and in assay [9] was above 100 µM each time.

Turning to `COC(=O)c1c2c(cc3c1CC1(Cc4cc5c(c(C)c4C1)CCC5)C3)CCC2` (stereo not drawn), the TGI in assay [1], in assay [3], in [4], in assay [6], in [7] and in [8] was above 100 µM in each case. Also, the TGI in assay [9] and in [10] was above 100 µM in each case.

On to `Cc1cc(C)c2c(c1)C/C(=C\c1cccc(C)c1C(=O)O)C2=O`, for which the TGI in assay [1], in [2], in assay [3], in [4], in assay [6] and in assay [7] was above 100 µM throughout. The TGI in assay [8], in assay [9] and in assay [10] was above 100 µM in each case.

For `CC(=O)CC(=O)N1CCSC1=S`, the TGI in assay [1], in assay [2], in [3], in [4], in [6] and in assay [7] was above 10 µM each time. Also, the TGI in assay [8], in assay [9] and in [10] was above 10 µM in each case.

Values taken from PubChem BioAssay (NCI).
